These results are taken from US5776944A, “7-(4-aminomethyl-3-methyloxyiminopyrroplidin-1-yl)-1-cyclopropyl-6-flu oro-4-oxo-1,4-dihydro-1,8-naphthyridine-3-carboxylic acid and the process for the preparation thereof” (LG Chemical Ltd., priority 1994, dated 1998).

A short description of series [1]: Chemical stability under heating. To be noted: for thermal stability: hydrate. The method, then:
The anhydride and each of the hydrates was introduced into a glass vial and maintained at 70° C.

Series [2] can be described thus: Thermal analysis (Differential Scanning Calorimetry). The class given is physicochemical. To be noted: DSC, 10° C./min. On the procedure: For the Differential Scanning Calorimetry, METTLER TOLEDO DSC821e and METTLER TOLEDO STARe System were used. 3.7 mg of sample was weighed into the aluminum pan, which was then press sealed with an aluminum lid. After three tiny needle holes were made on the lid, the sample was tested by heating from normal temperature to 250° C. at a rate of 10° C./min.
On the technique in general: DSC measures the heat that a sample takes up or gives off during a temperature scan.

The nature of series [3]: Moisture content according to hydration number. The class given is physicochemical. The method, then: The moisture content of the hydrate varies with the hydration number (n) of the hydrated molecule. Since the molecular weight of 7-(4-amino-methyl-3-methyloxylminopyrrolidin-1-yl)-1-cyclopropyl-6-fluoro- 4-oxo-1,4-dihydro-1,8-naphthyridine-3-carboxylic acid methanesulfonate is 485.5, the moisture content of the hydrate for n equal to 1, 1.5, 2, 2.5, 3, 3.5 or 4 is calculated to be 3.6%, […], 6.9%, 8.5%, 10.0%, 11.5% or 12.9%, respectively. However, the actual moisture content may differ from the calculated moisture content depending on differences in recrystallization conditions, drying conditions, etc.

A short description of series [4]: Equilibrium moisture content determination of hydrates. The format is physicochemical. The method, then: Six saturated aqueous salt solutions were introduced into each desiccator to control the inner relative humidity to a specific value as represented in the following Table 28. Then, equilibrium moisture contents of 3 hydrate and 1.5 hydrate prepared in Examples 205 and 206, respectively, were determined at several relative humidities.
Specifically, 100 mg of the sample was spread on a preweighed Petri dish and the total weight was accurately measured, then three of the sample were placed in each desiccator of Table 28. The desiccators were allowed to stand at normal temperature for 7 days and then the sample was taken to be weighed. After 13 days had passed, one of the three samples inside each desiccator was taken and the moisture content of each was measured by the thermogravimetric analysis described in Test Example 2. Equilibrium moisture content at each relative humidity is represented in FIG. 3 (3 hydrate), and FIG. 4 (1.5 hydrate). […] Both hydrates are stable since they keep a constant equilibrium moisture content regardless of the relative humidity change.

The nature of series [5]: Humidification of the anhydride with humidified nitrogen (Example 205). The class given is physicochemical. On the procedure:
A sonicator filled with water was adjusted to 40° C. and was sealed with a lid. Then, a nitrogen introducing tube and a nitrogen excreting tube were connected to the vessel. When the pressure of the dried nitrogen introduced through the nitrogen introducing tube was adjusted to 20 psi, the relative humidity of the humidified nitrogen excreted through the excreting tube was more than 93%. […] Samples were taken after 0, 5, 10, 20, 30, and 60 minutes, respectively, and the moisture content with the lapse of time was measured. From the results shown in FIG. 8, it can be seen that moisture content of about 10% is constantly maintained when the humidifying procedure is carried out over 30 minutes. The X-ray diffraction pattern of the humidified sample was identical to that the 3 hydrate obtained after recrystallization.

Series [6] is described as follows: Moisture adsorption test of the anhydride. The note with it: 25° C. The format is physicochemical. The method, then:
Under various relative humidities at 25° C., the moisture adsorption velocity and the equilibrium moisture content of the anhydride prepared in Example 203 were determined by means of an automatic moisture adsorption analyzer (MB 300 G Gravimetric Sorption Analyzer). This instrument produces a specific relative humidity at a specific temperature and continuously records the weight change of a sample due to adsorption or desorption of moisture as measured by a micro balance inside the instrument. 16 mg of the anhydride sample was loaded on the micro balance and the moisture contained in the sample was removed under a dry nitrogen stream at 50° C. A weight change of less than 5 μg per 5 minutes was the criterion for complete dryness. Thereafter, the inner temperature was adjusted to 25° C., and the sample was tested varying the relative humidity from 0 to 95% at 5% intervals. The sample was considered to have reached equilibrium at each relative humidity tested when the weight change was less than 5 μg per 5 minutes. […] In most cases, the equilibrium was reached within 2 hours.

The next series has as its system gram-positive strains. The note with it: background art; cited from earlier work.
The conditions of series [7]: background art; cited from earlier work.

“Also recorded” adds a separate entry of the source. Some results are limits rather than exact numbers.

As for `CON=C1CN(c2nc3c(cc2F)c(=O)c(C(=O)O)cn3C2CC2)CC1CN` (stereo not drawn) [3 hydrate, 7-(4-aminomethyl-3-methyloxyiminopyrrolidin-1-yl)-1-cyclopropyl-6-fluoro-4-oxo-1,4-dihydro-1,8-naphthyridine-3-carboxylic acid methanesulfonate·3 hydrate], the “thermal stability compared with the anhydride” value in series [1] (70° C., Table 29) is recorded as “the same degree of thermal stability as the anhydride”. In addition, the thermal stability was 94% in series [1] (40320 min) and 97% in series [1]. The “onset of endothermic peak (vaporization of water)” value in series [2] is “around 50 °C”. The “Moisture Content” value in series [3] (actual moisture content, methanesulfonate hydrates, hydrate) is listed as 9-11%. The “change of moisture content” value in series [3] (among stable hydrates) is reported as “lowest”. In addition, the “stability of hydrate towards relative humidity change” value in series [4] was “stable”. Besides, the equilibrium moisture content result in series [4] (whole relative humidity range tested (23 to 75%)) was “around 10%”.
With `CON=C1CN(c2nc3c(cc2F)c(=O)c(C(=O)O)cn3C2CC2)CC1CN` (stereo not drawn) [anhydride, 7-(4-aminomethyl-3-methyloxyiminopyrrolidin-1-yl)-1-cyclopropyl-6-fluoro-4-oxo-1,4-dihydro-1,8-naphthyridine-3-carboxylic acid methanesulfonate anhydride], the endothermic peak result in series [2] is reported as “without any endothermic peak”. Moreover, the Moisture Content result is on record as “about 2.5%” in series [5] (before humidification) and “about 10%” in series [5] (humidified nitrogen, over 30 minutes, FIG. 8). Moreover, the moisture adsorption result in series [6] (relative humidity 0 to 95%) is reported as “Initial moisture adsorption proceeded very speedily at each relative humidity tested; also recorded: the equilibrium moisture content is dependent upon the relative humidity”. Further, in series [6] (relative humidity 0 to 95% at 5% intervals, in most cases), the “time to reach moisture adsorption equilibrium” value is at most 2 h.
As for `CCn1cc(C(=O)O)c(=O)c2cc(F)c(N3CCNCC3)cc21` [norfloxacin], in the series on gram-positive strains, the “antibacterial activity against gram-positive strains” value is “weak antibacterial activity against gram-positive strains”. In addition, in series [7], the “distribution and absorption in living body” value was “poor distribution and absorption in living body”.
